Data: US20180263909A1, “DUAL LOADED LIPOSOMAL NANOPARTICLES” (priority 2015, published 2018)

Experiments:
MM.1S cells = experiment: Cytotoxicity (Cell Counting Kit-8) and Chou-Talalay synergy analysis, MM.1S; assay type: cell-based; details: 25 nM of each drug, 48 h
Procedure: (§1) Cytotoxicity and Synergy Analysis. 2×10^5 cells/well were plated in a 96-well dish 16 h prior to the experiment. Cells were treated with respective cytotoxic agents at varying concentrations. Cytotoxicity was assessed at 48 h using Cell Counting Kit-8 Reagent (Dojindo Molecular Technologies, Rockville, Mass.).

NCI-H929 cells = details: 25 nM of each drug, 48 h
Procedure: as §1

With `CC(C)C[C@H](NC(=O)[C@H](CCc1ccccc1)NC(=O)CN1CCOCC1)C(=O)N[C@@H](Cc1ccccc1)C(=O)N[C@@H](CC(C)C)C(=O)[C@@]1(C)CO1` [carfilzomib] the cytotoxicity (MM.1S cells) was “minimal cytotoxicity” and the cytotoxicity (NCI-H929 cells) was “minimal cytotoxicity”.
